In the Deep4Chem optical property database:

Experiment: solvent given as SMILES

Cc1cc(-c2nc(-c3ccccc3)nc(-c3ccccc3)n2)c(C)cc1-c1ccc2c(c1)C1(c3ccccc3-c3ccccc31)c1ccccc1N2c1ccccc1
absorption maximum (in c1cc(-c2cccc(-n3c4ccccc4c4ccccc43)c2)cc(-n2c3ccccc3c3ccccc32)c1): 363.44 nm

CCCCCCCCOc1ccc(C2=C3C(C)=C(C#Cc4ccc(B(c5c(C)cc(C)cc5C)c5c(C)cc(C)cc5C)cc4)C(C)=[N+]3[B-](F)(F)n3c(C)c(C#Cc4ccc(B(c5c(C)cc(C)cc5C)c5c(C)cc(C)cc5C)cc4)c(C)c32)cc1
absorption maximum (in CC#N): 568.51 nm | absorption maximum (in CCCCCC): 580.18 nm | absorption maximum (in ClCCl): 576 nm

CCOC(=O)c1cc(C(=O)OCC)c2cc(C)ccc2n1
absorption maximum (in CCO): 330 nm

Cc1ccc(NC(=O)c2sc(Br)nc2C)cc1
absorption maximum (in C1CCOC1): 301.5 nm | absorption maximum (in CC#N): 281.6 nm | absorption maximum (in CCCCCC): 286.9 nm | absorption maximum (in CCOC(C)=O): 286.1 nm | absorption maximum (in CN(C)C=O): 287.1 nm | absorption maximum (in CO): 282.1 nm | absorption maximum (in CS(C)=O): 283.5 nm | absorption maximum (in ClC(Cl)Cl): 288.3 nm

C/C(=C\c1ccc(Cl)cc1)c1nc2ccccc2s1
absorption maximum (in C1CCCCC1): 320 nm | absorption maximum (in CO): 320 nm

c1ccc(-c2cc3c(-c4ccccc4)c4cccc5c(-c6ccccc6)cc6c(-c7ccccc7)c7cccc2c7c3c6c54)cc1
absorption maximum (in ClCCl): 454 nm

Cc1cc(O)c(C(=O)/C=C/c2ccc(O)c(O)c2)c(=O)o1
absorption maximum (in CC#N): 390 nm | absorption maximum (in ClCCl): 387 nm

N#CSC1=CC2=C(c3ccccc3)c3cc(SC#N)c(N4CCOCC4)n3[B-](F)(F)[N+]2=C1N1CCOCC1
absorption maximum (in CC#N): 588 nm | absorption maximum (in CCCCCC): 599 nm | absorption maximum (in CCOC(C)=O): 593 nm | absorption maximum (in CO): 585 nm | absorption maximum (in ClCCl): 596 nm

c1ccc2c3c(ccc2c1)-c1cccc2cc4ccccc4c-3c12
absorption maximum (in CCCCCCC): 446 nm

CC(C)[Si](C#Cc1ccc2c(C#C[Si](C(C)C)(C(C)C)C(C)C)cc3c4cc(C#C[Si](C(C)C)(C(C)C)C(C)C)ccc4c(C#C[Si](C(C)C)(C(C)C)C(C)C)cc3c2c1)(C(C)C)C(C)C
absorption maximum (in ClCCl): 394 nm

c1ccc(-c2cc(-c3ccc4ccc5c(-c6ccnc(-c7ccccn7)c6)ccc6ccc3c4c65)ccn2)nc1
absorption maximum (in C1CCOC1): 362 nm | absorption maximum (in CC#N): 360 nm | absorption maximum (in CCC#N): 360 nm | absorption maximum (in CCCC#N): 360 nm | absorption maximum (in CCCCCC): 361 nm | absorption maximum (in CCCO): 361 nm | absorption maximum (in CCO): 361 nm | absorption maximum (in CO): 363 nm | absorption maximum (in Cc1ccccc1): 362 nm

c1ccc(N2c3ccc4ccccc4c3-c3c4ccccc4cc[n+]3[B-]2(c2ccccc2)c2ccccc2)cc1
absorption maximum (in Cc1ccccc1): 511 nm

Cc1ccc(-c2ccc(-c3ccc(-c4ccc(C)cc4)cc3/C(=C(/c3ccccc3)c3cc(-c4ccc(C)cc4)ccc3-c3ccc(-c4ccc(C)cc4)cc3)c3ccccc3)cc2)cc1
absorption maximum (in C1CCOC1): 295 nm

O=C(O)COc1cccc(OCC(=O)O)c1-c1c2ccc(=[N+]3CCCCC3)cc-2oc2cc(N3CCCCC3)ccc12
absorption maximum (in CCO): 557 nm | absorption maximum (in O): 567 nm

CC(C)(C)NC(=O)c1ccc(-c2ccccc2)c2ccc3c4ccccc4c4ccccc4c3c12
absorption maximum (in ClCCl): 336 nm

CCC1=C(C)C(=O)n2c1cc1c(CCC(=O)OC)c(C)c(C)n1c2=O
absorption maximum (in CC#N): 420 nm | absorption maximum (in CC(C)=O): 420 nm | absorption maximum (in CO): 426 nm | absorption maximum (in CS(C)=O): 427 nm | absorption maximum (in ClC(Cl)Cl): 429 nm | absorption maximum (in c1ccccc1): 425 nm

CCCSc1ccc2n1[B-](F)(F)[N+]1=C(SC#N)C=CC1=C2c1ccccc1
absorption maximum (in CC#N): 538 nm | absorption maximum (in CCCCCC): 555 nm | absorption maximum (in CCOC(C)=O): 549 nm | absorption maximum (in CO): 544 nm | absorption maximum (in ClCCl): 552 nm

CCCCCCC(CCCCCC)N1C(=O)c2cccc3c(-c4ccc(-c5ccc(OC)cc5)cc4)ccc(c23)C1=O
absorption maximum (in CCCCCC): 354 nm | absorption maximum (in CCCCCCCCCCCCCC): 357.6 nm | absorption maximum (in CCCCCCCCCCCO): 369.4 nm | absorption maximum (in CCCCO): 366 nm | absorption maximum (in CN(C)C=O): 369 nm | absorption maximum (in Cc1ccccc1): 364.8 nm | absorption maximum (in ClC(Cl)Cl): 364.4 nm

COc1ccc(N(c2ccc(OC)cc2)c2ccc(-c3ccc4c(c3)C(=O)c3ccccc3C4=O)cc2)cc1
absorption maximum (in C1CCOC1): 477 nm | absorption maximum (in CCCCCC): 468 nm | absorption maximum (in CCOC(C)=O): 472 nm | absorption maximum (in CCOCC): 472 nm | absorption maximum (in Cc1ccccc1): 481 nm | absorption maximum (in ClC(Cl)(Cl)Cl): 483 nm | absorption maximum (in ClCCl): 485 nm

COc1ccc(-c2nc(-c3cc([N+](=O)[O-])ccc3O)[nH]c2-c2ccc(OC)cc2)cc1
absorption maximum (in CO): 260 nm

F[B-]1(F)n2ccnc2-c2cccc[n+]21
absorption maximum (in C1CCCCC1): 298 nm | absorption maximum (in C1CCOC1): 298 nm | absorption maximum (in C1COCCO1): 297 nm | absorption maximum (in CC#N): 295 nm | absorption maximum (in CCCCCC): 297 nm | absorption maximum (in CO): 293 nm | absorption maximum (in ClC(Cl)Cl): 300 nm

Cc1ccc(-n2c3ccc(-c4ccc(-c5nc6ccccc6n5-c5ccccc5)cc4)cc3c3cc(-c4ccc(-c5nc6ccccc6n5-c5ccccc5)cc4)ccc32)cc1
absorption maximum (in ClC(Cl)Cl): 318 nm

O=C(c1cc(F)c(N2CCCCC2)cc1F)c1cc(F)c(N2CCCCC2)cc1F
absorption maximum (in CCO): 354 nm

CCn1c2ccccc2c2cc(C#Cc3cc(C#Cc4ccc5c(c4)c4ccccc4n5CC)nc(OC)n3)ccc21
absorption maximum (in C1CCOC1): 388 nm | absorption maximum (in CCOC(C)=O): 384 nm | absorption maximum (in CN(C)C=O): 392 nm | absorption maximum (in Cc1ccccc1): 389 nm | absorption maximum (in ClCCl): 390 nm

O=C1O[B-]2(OC1=O)OC(c1ccc3ccccc3c1)=CC(c1ccc3ccccc3c1)=[O+]2
absorption maximum (in CC#N): 435 nm | absorption maximum (in ClC(Cl)(Cl)Cl): 438 nm

c1cc2ccc3[o+]c4ccc5cccc6c7cccc8c(c1)c2c3c(c87)c4c56
absorption maximum (in ClCCl): 573 nm

CCOC(=O)COc1ccc(C(c2c(C)[nH]c3ccccc23)c2c(C)[nH]c3ccccc23)cc1
absorption maximum (in C1CCCCC1): 291 nm | absorption maximum (in CC#N): 290 nm | absorption maximum (in CO): 290 nm | absorption maximum (in O): 289 nm

C#Cn1c(-c2cc(-c3nc4ccc(C)cc4n3C#C)cc(-c3nc4ccc(C)cc4n3C#C)c2)nc2ccc(C)cc21
absorption maximum (in ClCCl): 306.5 nm

COc1ccc2c(c1)c1ccccc1n2-c1nc2ccccc2nc1-n1c2ccccc2c2cc(OC)ccc21
absorption maximum (in Cc1ccccc1): 423 nm

Cc1ccc([B-]2(c3ccc(C)cc3)n3nc(C(F)(F)F)cc3-c3c4ccccc4cc[n+]32)cc1
absorption maximum (in C1CCCCC1): 377 nm | absorption maximum (in Cc1ccccc1): 377 nm | absorption maximum (in ClCCl): 373 nm

CC(C)[Si](C#Cc1c2ccccc2c(C#C[Si](C(C)C)(C(C)C)C(C)C)c2nc3c(ccc4ccccc43)nc12)(C(C)C)C(C)C
absorption maximum (in CCCCCC): 544 nm

Cc1ccccc1N1c2sc3ccccc3c2Sc2sc3ccccc3c21
absorption maximum (in ClCCl): 325 nm

N#Cc1ccc(C2=CC3=c4cc(-c5ccc(C#N)cc5)c5nc(C(F)(F)C(F)(F)C(F)(F)F)nc6c(-c7ccc(C#N)cc7)cc(c4c65)C4=CC(c5ccc(C#N)cc5)=C5N=C(C(F)(F)C(F)(F)C(F)(F)F)N=C2C5C43)cc1 (stereo not given)
absorption maximum (in C1CCOC1): 492 nm

N#Cc1ccc(N/N=C/c2ccc3ccccc3c2O)cc1
absorption maximum (in CC#N): 380 nm | absorption maximum (in CCCCCC): 384 nm | absorption maximum (in CO): 380 nm | absorption maximum (in CS(C)=O): 390 nm | absorption maximum (in ClC(Cl)Cl): 384 nm

CCCCNc1nc(/C=C/c2ccccc2)[n+]([O-])c2c1CCCC2
absorption maximum (in ClCCl): 415 nm

O=C1c2ccccc2C(=O)c2cc(-c3ccc(N(c4ccccc4)c4ccccc4)cc3)ccc21
absorption maximum (in C1CCOC1): 447 nm | absorption maximum (in CCCCCC): 442 nm | absorption maximum (in CCOC(C)=O): 446 nm | absorption maximum (in CCOCC): 443 nm | absorption maximum (in Cc1ccccc1): 454 nm | absorption maximum (in ClC(Cl)(Cl)Cl): 457 nm | absorption maximum (in ClCCl): 459 nm

CCOC(=O)c1cc(C(=O)OCC)c2c(C)ccc(OC(=O)OC(C)(C)C)c2n1
absorption maximum (in CCO): 312 nm

CCCCN(CCCC)c1ccc2c#cc3cc4c#cc5ccc(C(F)(F)F)cc5c#cc#cc5cc(C(F)(F)F)ccc5c#cc4cc3c#cc3ccc(N(CCCC)CCCC)cc3c#cc#cc2c1
absorption maximum (in ClCCl): 450 nm

c1ccc(N(c2ccccc2)c2ccc(-c3nc(-c4ccc(N(c5ccccc5)c5ccccc5)cc4)c4ccccc4n3)cc2)cc1
absorption maximum (in ClCCl): 370 nm

CN(C)c1ccc(-c2ccc(C#N)s2)s1
absorption maximum (in CCO): 413 nm

CC1(C)c2ccccc2N(c2ccc(-c3ccc4c(c3)C(=O)c3ccc(-c5ccc(N6c7ccccc7C(C)(C)c7ccccc76)cc5)cc3C4=O)cc2)c2ccccc21
absorption maximum (in Cc1ccccc1): 446 nm

N#Cc1c(N2CCCCC2)cc(-c2ccccc2)c2c1Cc1ccccc1-2
absorption maximum (in C1CCOC1): 358 nm

N#Cc1ccc(-c2cn3cc(-c4ccccc4)c[n+]3[n-]2)cc1
absorption maximum (in ClCCl): 383 nm

CCC1=C(C)C(=O)n2c1cc1c(c(C)c(C(=O)OCC(C)C)n1CC(C)C)c2=O
absorption maximum (in C1CCCCC1): 397 nm | absorption maximum (in CO): 397 nm | absorption maximum (in CS(C)=O): 397 nm | absorption maximum (in ClC(Cl)Cl): 399 nm | absorption maximum (in c1ccccc1): 397 nm

Ic1ccc(C2=C3C=CC4=[N+]3[B-]3(Oc5ccccc54)Oc4ccccc4-c4ccc2n43)cc1 (stereo not given)
absorption maximum (in ClC(Cl)Cl): 630 nm

CC(C)(C)c1ccc(-c2cc(-c3ccc(-c4cc(-c5ccc(C(C)(C)C)cc5)c(C(=O)N5CCCCC5)s4)s3)sc2C(=O)N2CCCCC2)cc1
absorption maximum (in ClCCl): 378 nm

Fc1ccc(N(c2ccccc2)c2ccc3ccc4c(N(c5ccccc5)c5ccc(F)cc5)ccc5ccc2c3c54)cc1
absorption maximum (in ClCCl): 423 nm

COc1ccc(/C=C(\C#N)c2nc(-c3ccc(OC)cc3)cs2)cc1
absorption maximum (in CC#N): 380 nm

CCOC(=O)c1c2c3c(ccc(F)c3c3cc4ccccc4cc13)N(C)C2=O
absorption maximum (in CC#N): 410 nm

CN(C)c1ccc(-n2c(-c3ccncc3)nc3nccnc32)cc1
absorption maximum (in CC#N): 309 nm

CN(C)c1ccc(-c2ccc(-c3nc(C#N)c(C#N)n3C)cc2)cc1
absorption maximum (in C1CCCCC1): 333 nm | absorption maximum (in CC#N): 336 nm | absorption maximum (in CO): 336 nm | absorption maximum (in ClC(Cl)Cl): 348 nm

CC(C)(C)c1ccc(Oc2cc3c4c(cc(Oc5ccc(C(C)(C)C)cc5)c5c6c(Oc7ccc(C(C)(C)C)cc7)cc7c8c(cc(Oc9ccc(C(C)(C)C)cc9)c(c2c45)c86)C(=O)N(Cc2ccccc2)C7=O)C(=O)N(Cc2ccccc2)C3=O)cc1
absorption maximum (in ClC(Cl)Cl): 581 nm
